Measured values from patent US20220227789A1, “NOVEL INDOLIZINE-2-CARBOXAMIDES ACTIVE AGAINST THE HEPATITIS B VIRUS (HBV)” (AiCuris GmbH & Co. KG, priority 2019, published 2022).
pEC50, pIC50: −log10 of the molar value.

Assays:
[1] = target: T1, HBV core protein (C-terminal truncated, 149 aa assembly domain) (Hepatitis B virus genotype D subtype adw, UniProt P03147, C107A/C48A/C61A); experiment: Biochemical capsid assembly assay (fluorescence quenching); details: BODIPY-FL labelled core protein, assembly started with NaCl, read after 6 min; read-out: Assembly Activity
T1 construct: The C-terminal truncated core protein containing 149 amino acids of the N-terminal assembly domain; made in house; host or cells: E. coli BL21 (DE3) Rosetta2, plasmid pET21b
Method: Biochemical Capsid Assembly Assay
The screening for assembly effector activity was done based on a fluorescence quenching assay published by Zlotnick et al. (2007). The C-terminal truncated core protein containing 149 amino acids of the N-terminal assembly domain fused to a unique cysteine residue at position 150 and was expressed in E. coli using the pET expression system (Merck Chemicals, Darmstadt). Purification of core dimer protein was performed using a sequence of size exclusion chromatography steps. In brief, the cell pellet from 1 L BL21 (DE3) Rosetta2 culture expressing the coding sequence of core protein cloned NdeI/XhoI into expression plasmid pET21b was treated for 1 h on ice with a native lysis buffer (Qproteome Bacterial Protein Prep Kit; Qiagen, Hilden). After a centrifugation step the supernatant was precipitated during 2 h stirring on ice with 0.23 g/ml of solid ammonium sulfate. Following further centrifugation the resulting pellet was resolved in buffer A (100 mM Tris, pH 7.5; 100 mM NaCl; 2 mM DTT) and was subsequently loaded onto a buffer A equilibrated CaptoCore 700 column (GE HealthCare, Frankfurt). The column flow through containing the assembled HBV capsid was dialyzed against buffer N (50 mM NaHCO3 pH 9.6; 5 mM DTT) before urea was added to a final concentration of 3M to dissociate the capsid into core dimers for 1.5 h on ice. The protein solution was then loaded onto a 1 L Sephacryl 5300 column. After elution with buffer N core dimer containing fractions were identified by SDS-PAGE and subsequently pooled and dialyzed against 50 mM HEPES pH 7.5; 5 mM DTT. To improve the assembly capacity of the purified core dimers a second round of assembly and disassembly starting with the addition of 5 M NaCl and including the size exclusion chromatography steps described above was performed. From the last chromatography step core dimer containing fractions were pooled and stored in aliquots at concentrations between 1.5 to 2.0 mg/ml at −80° C.
Immediately before labelling the core protein was reduced by adding freshly prepared DTT in a final concentration of 20 mM. After […] on ice storage buffer and DTT was removed using a Sephadex G-25 column (GE HealthCare, Frankfurt) and 50 mM HEPES, pH 7.5. For labelling 1.6 mg/ml core protein was incubated at 4° C. and darkness overnight with BODIPY-FL maleimide (Invitrogen, Karlsruhe) in a final concentration of 1 mM. After labelling the free dye was removed by an additional desalting step using a Sephadex G-25 column. Labelled core dimers were stored in aliquots at 4° C. In the dimeric state the fluorescence signal of the labelled core protein is high and is quenched during the assembly of the core dimers to high molecular capsid structures. The screening assay was performed in black 384 well microtiter plates in a total assay volume of 10 μl using 50 mM HEPES pH 7.5 and 1.0 to 2.0 μM labelled core protein. Each screening compound was added in 8 different concentrations using a 0.5 log-unit serial dilution starting at a final concentration of 100 μM, 31.6 μM or 10 μM, In any case the DMSO concentration over the entire microtiter plate was 0.5%. The assembly reaction was started by the injection of NaCl to a final concentration of […] which induces the assembly process to approximately 25% of the maximal quenched signal. 6 min after starting the reaction the fluorescence signal was measured using a Clariostar plate reader (BMG Labtech, Ortenberg) with an excitation of 477 nm and an emission of 525 nm. As 100% and 0% assembly control HEPES buffer containing 2.5 M and 0 M NaCl was used. Experiments were performed thrice in triplicates. EC50 values were calculated by non-linear regression analysis using the Graph Pad Prism 6 software (GraphPad Software, La Jolla, USA).

HBV = HBV replication assay: HBV DNA from the supernatants of HepAD38 cells; type: cell-based; details: Hepatitis B virus, 144 h, HBV DNA in supernatant by qPCR at day 6, read-out: Cell Activity
Method: Determination of HBV DNA from the Supernatants of HepAD38 Cells
The anti-HBV activity was analysed in the stable transfected cell line HepAD38, which has been described to secrete high levels of HBV virion particles (Ladner et al., 1997). In brief, HepAD38 cells were cultured at 37° C. at 5% CO2 and 95% humidity in 200 μl maintenance medium, which was Dulbecco's modified Eagle's medium/Nutrient Mixture F-12 (Gibco, Karlsruhe), 10% fetal bovine serum (PAN Biotech Aidenbach) supplemented with 50 μg/ml penicillin/streptomycin (Gibco, Karlsruhe), 2 mM L-glutamine (PAN Biotech, Aidenbach), 400 μg/ml G418 (AppliChem, Darmstadt) and 0.3 μg/ml tetracycline. Cells were subcultured once a week in a 1:5 ratio, but were usually not passaged more than ten times. For the assay 60,000 cells were seeded in maintenance medium without any tetracycline into each well of a 96-well plate and treated with serial half-log dilutions of test compound. To minimize edge effects the outer 36 wells of the plate were not used but were filled with assay medium. On each assay plate six wells for the virus control (untreated HepAD38 cells) and six wells for the cell control (HepAD38 cells treated with 0.3 μg/ml tetracycline) were allocated, respectively. In addition, one plate set with reference inhibitors like BAY 41-4109, entecavir, and lamivudine instead of screening compounds were prepared in each experiment. In general, experiments were performed thrice in triplicates. At day 6 HBV DNA from 100 μl filtrated cell culture supernatant (AcroPrep Advance 96 Filter Plate, […] Supor membran, PALL GmbH, Dreieich) was automatically purified on the MagNa Pure LC instrument using the MagNA Pure 96 DNA and Viral NA Small Volume Kit (Roche Diagnostics, Mannheim) according to the instructions of the manufacturer. EC50 values were calculated from relative copy numbers of HBV DNA In brief, 5 μl of the 100 μl eluate containing HBV DNA were subjected to PCR LC480 Probes Master Kit (Roche) together with 1 μM antisense primer […], 0.5 μM sense primer […], 0.3 μM hybprobes […]-FL and LC640-[…]-PH (TIBMolBiol, Berlin) to a final volume of […]. The PCR was performed on the Light Cycler 480 real time system (Roche Diagnostics, Mannheim) using the following protocol: Pre-incubation for 1 min at 95° C., amplification: 40 cycles×(10 sec at 95° C., 50 sec at 60° C., 1 sec at 70° C.), cooling for 10 sec at 40° C. Viral load was quantitated against known standards using HBV plasmid DNA of pCH-9/3091 (Nassal et al., 1990, Cell 63: 1357-1363) and the LightCycler 480 SW 1.5 software (Roche Diagnostics, Mannheim) and EC50 values were calculated using non-linear regression with GraphPad Prism 6 (GraphPad Software Inc., La Jolla, USA).

T1 sequence (P03147 1-150, looked up, stated change not applied): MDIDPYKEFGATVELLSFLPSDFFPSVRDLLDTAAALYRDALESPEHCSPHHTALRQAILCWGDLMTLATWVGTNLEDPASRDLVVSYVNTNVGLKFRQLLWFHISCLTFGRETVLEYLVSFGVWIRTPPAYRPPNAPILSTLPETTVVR

With CC1Cc2[nH]nc(-c3cscn3)c2CN1C(=O)c1cc2ccc(Cl)cn2c1 (stereo not shown) [Example 21, 6-chloro-2-[6-methyl-3-(1,3-thiazol-4-yl)-1H,4H,5H,6H,7H-pyrazolo[4,3-c]pyridine-5-carbonyl]indolizine] the pIC50 [1] was 5.00 to 5.30 and the pEC50 (HBV) was over 6.00.
Work on CC1Cc2[nH]nc(-c3cscn3)c2CN1C(=O)c1cc2cc(Cl)c(F)cn2c1 (stereo not shown) [Example 22, 7-chloro-6-fluoro-2-[6-methyl-3-(1,3-thiazol-4-yl)-1H,4H,5H,6H,7H-pyrazolo[4,3-c]pyridine-5-carbonyl]indolizine] yielded a pIC50 [1] of 5.00 to 5.30 and a pEC50 (HBV) of over 6.00.
Molecule CC1Cc2[nH]nc(-c3cscn3)c2CN1C(=O)c1cc2ccc(F)cn2c1 (stereo not shown) [Example 23, 6-fluoro-2-[6-methyl-3-(1,3-thiazol-4-yl)-1H,4H,5H,6H,7H-pyrazolo[4,3-c]pyridine-5-carbonyl]indolizine] has a pIC50 [1] of over 5.30 and a pEC50 (HBV) of over 6.00.
With CC1Cc2[nH]nc(-c3cscn3)c2CN1C(=O)c1cc2c(F)cccn2c1 (stereo not shown) [Example 24, 8-fluoro-2-[6-methyl-3-(1,3-thiazol-4-yl)-1H,4H,5H,6H,7H-pyrazolo[4,3-c]pyridine-5-carbonyl]indolizine] the pIC50 [1] was over 5.30 and the pEC50 (HBV) was over 6.00.
CC1Cc2[nH]nc(-c3cscn3)c2CN1C(=O)c1cc2c(C(F)(F)F)cccn2c1 (stereo not shown) [Example 25, 2-[6-methyl-3-(1,3-thiazol-4-yl)-1H,4H,5H,6H,7H-pyrazolo[4,3-c]pyridine-5-carbonyl]-8-(trifluoromethyl)indolizine] showed a pIC50 [1] of 5.00 to 5.30 and a pEC50 (HBV) of over 6.00.
Molecule CC1Cc2[nH]nc(-c3cscn3)c2CN1C(=O)c1cc2ccccn2c1 (stereo not shown) [Example 26, 2-[6-methyl-3-(1,3-thiazol-4-yl)-1H,4H,5H,6H,7H-pyrazolo[4,3-c]pyridine-5-carbonyl]indolizine] has a pIC50 [1] of over 5.30 and a pEC50 (HBV) of over 6.00.
Molecule CC(NC(=O)c1noc2c1CN(C(=O)c1cc3ccccn3c1)CC2)C(F)(F)F (stereo not shown) [Example 51, 5-(indolizine-2-carbonyl)-N-(1,1,1-trifluoropropan-2-yl)-4H,5H,6H,7H-[1,2]oxazolo[4,5-c]pyridine-3-carboxamide] has a pIC50 [1] of over 5.30 and a pEC50 (HBV) of over 6.00.
With CC(NC(=O)c1onc2c1CN(C(=O)c1cc3ccccn3c1)CC2)C(F)(F)F (stereo not shown) [Example 53, 5-(indolizine-2-carbonyl)-N-(1,1,1-trifluoropropan-2-yl)-4H,5H,6H,7H-[1,2]oxazolo[4,3-c]pyridine-3-carboxamide] the pIC50 [1] was over 5.30 and the pEC50 (HBV) was over 6.00.
